Reference: ChEMBL document CHEMBL1126056, “Asymmetric synthesis of 1,3-dioxolane-pyrimidine nucleosides and their anti-HIV activity” (J Med Chem, 1992)

Legend:
[1] = Cytotoxicity in peripheral blood mononuclear cells (PBM).; assay type: functional, cell-based; conditions: Homo sapiens
[2] = Effective concentration against HIV-1 in peripheral blood mononuclear cells (PBM).; assay type: functional, Homo sapiens
[3] = system: Vero; test: Cytotoxicity in vero cells.; assay type: functional, cell-based; conditions: Chlorocebus sabaeus
[4] = Cytotoxicity in peripheral blood mononuclear; assay type: functional, Homo sapiens
[5] = The compound was tested for antiviral activity against AZT resistant strain 9F HIV in PBM cells.; assay type: functional, cell-based; conditions: Homo sapiens, PBMC
[6] = The compound was tested for antiviral activity against AZT sensitive strain 9F HIV in PBM cells.; assay type: functional, cell-based; conditions: Homo sapiens, PBMC
[7] = The compound was tested for antiviral activity against AZT resistant strain 10 HIV in PBM cells.; assay type: functional; conditions: Homo sapiens, PBMC
[8] = The compound was tested for antiviral activity against AZT sensitive 10 HIV in PBM cells.; assay type: functional; conditions: Homo sapiens, PBMC
[9] = Effective concentration against HIV-1 in peripheral blood mononuclear cells(PBM).; assay type: functional, Homo sapiens
[10] = Cytotoxicity in peripheral blood mononuclear cells(PBM).; assay type: functional, cell-based; conditions: Homo sapiens

| EC50 [2] | SMILES | IC50 [1] | IC50 [3] | further results |
| --- | --- | --- | --- | --- |
| > 100 µM | O=c1ccn([C@@H]2CO[C@@H](CO)O2)c(=O)[nH]1 | > 100 µM | > 100 µM |  |
| > 100 µM | O=c1[nH]c(=O)n([C@@H]2CO[C@@H](CO)O2)cc1I | > 100 µM | > 100 µM |  |
| > 100 µM | O=c1ccn([C@H]2CO[C@@H](CO)O2)c(=O)[nH]1 | > 100 µM | > 100 µM |  |
| > 100 µM | O=c1[nH]c(=O)n([C@@H]2CO[C@@H](CO)O2)cc1F | > 100 µM | > 100 µM |  |
| 69.6 µM | O=c1[nH]c(=O)n([C@H]2CO[C@@H](CO)O2)cc1F | > 100 µM | > 100 µM |  |

The next lines start with the compound.

| SMILES | EC50 [2] | IC50 [1] | IC50 [3] | further results |
| --- | --- | --- | --- | --- |
| O=c1[nH]c(=O)n([C@H]2CO[C@@H](CO)O2)cc1I | > 100 µM | > 100 µM | > 100 µM |  |
| O=c1[nH]c(=O)n([C@H]2CO[C@@H](CO)O2)cc1Cl | 6.8 µM |  | > 100 µM | IC50 [4]: > 100 µM |
| O=c1[nH]c(=O)n([C@@H]2CO[C@@H](CO)O2)cc1Cl | > 100 µM | > 100 µM | > 100 µM |  |
| Nc1ccn([C@H]2CO[C@@H](CO)O2)c(=O)n1 | 0.16 µM | 62 µM | 8.3 µM |  |
| Cc1cn([C@H]2C[C@H](N=[N+]=[N-])[C@@H](CO)O2)c(=O)[nH]c1=O [ZIDOVUDINE] |  | > 100 µM | 28 µM | EC50 [5]: 1200 nM; EC50 [6]: 1.2 nM; EC90 [7]: 19 µM; EC90 [8]: 6.5 nM; EC50 [9]: 0.009 µM |
| Nc1ccn([C@@H]2CO[C@@H](CO)O2)c(=O)n1 | 2.4 µM | > 100 µM | > 100 µM |  |
| O=c1[nH]c(=O)n([C@H]2CO[C@@H](CO)O2)cc1Br |  |  | > 100 µM | IC50 [10]: > 100 µM; EC50 [9]: 9.3 µM |
| O=c1[nH]c(=O)n([C@@H]2CO[C@@H](CO)O2)cc1Br |  |  | > 100 µM | IC50 [10]: > 100 µM; EC50 [9]: > 100 µM |
